One experiment has as its target GmolGOBP2 V111A (Grapholita molesta, UniProt H9XTU6, V131A). Briefly: Fluorescence competitive binding assay, GmolGOBP2 mutant V111A. As for the experimental part: (§1) Fluorescence binding assays were performed on a Hitachi (Tokyo, Japan) F-4500 fluorescence spectrophotometer with a 1 cm light path fluorimeter quartz cuvette. Both of the slit widths for excitation and emission were 10 nm. 1-N-phenyl-naphthylamine (1-NPN) was dissolved in HPLC purity grade methanol to yield a 1 mM stock solution. A 2 μM solution of the protein in 20 mM Tris-HCl, pH 7.4, was titrated with aliquots of 1 mM 1-NPN to final concentrations of 1, 2, 4, 6, 8, 10, 12, 14, 16, 18, and 22 μM. The probes were excited at 337 nm and emission spectra were recorded between 370 and 550 nm. All ligands (S1 File) used in competitive binding assays were also dissolved in HPLC purity grade methanol. The final concentrations of sex pheromones were between 1 and 22 μM for each rGmolGOBP protein, whereas the concentrations of 30 synthetic plant volatiles to rGmolGOBP1 and 2 were up to 64 and 100 μM, respectively. Binding data were collected in three independent measurements.
(§2) Dissociation constants of the complex GmolGOBPs/1-NPN (K1-NPN) were calculated by a nonlinear regression binding curve, using Prism 5.0 (GraphPad Software Inc.). The inhibition constants (Ki) of the competitors were computed from the corresponding IC50 values using the equation: Ki = [IC50]/(1+[1−NPN]/K1−NPN), where [1−NPN] is the free concentration of 1−NPN and K1-NPN is the dissociation constant of the complex protein/1-NPN.
(§3) Gene-specific primers were designed in accordance with the recommended protocols of the TaKaRa MutanBEST Kit (TaKaRa, Shiga, Japan). The GmolGOBP2 coding sequence was mutated to create the three mutants GmolGOBP2 T9A (threonine to alanine at position 9), GmolGOBP2 V111A (valine to alanine at position 111), and GmolGOBP2 V114A (valine to alanine at position 114). Mutations were obtained using the TaKaRa MutanBEST Kit with Pyrobest DNA polymerase with the pMD19-T/GmolGOBP2 plasmid DNA as template. All plasmids containing mutations were verified by DNA sequencing. Mutated protein expression and enrichment were performed as described above for rGmolGOBP1 and 2. After determining concentrations, purified mutants were applied to verify the binding affinities with dodecanol and its analogs in fluorescence ligand-binding assays.

A further experiment deals with rGmolOBP15. More on the design: method as in PMID 26609640. Conditions: cited from earlier work.
A further experiment deals with rGmolGOBP2 (Grapholita molesta, UniProt H9XTU6). In words: Effect of pH on binding affinity of rGmolGOBP2. Here is the method: Based on the fluorescence measurement experiments as described above, we further evaluated the effects of pH on the binding affinities of GmolGOBP2 to ligands; the binding of GmolGOBP2 to the representative ligand dodecanol was detected at six different pH values (4.0, 5.0, 6.8, 7.4, 8.0 and 8.8) in 20 mM Tris-HCl buffer. All the values of binding affinities were collected in three independent measurements. Data are reported as means±SEM. Difference in pH effect on binding affinity of rGmolGOBP2 was analyzed with one-way analysis of variance (ANOVA), followed by the Student-Newman-Keuls (S-N-K) test at α = 0.05. P<0.05 was considered statistically significant. For statistical analysis we used SPSS 16.0 software (SPSS Inc., Chicago, IL).
Chain of rGmolGOBP2 (H9XTU6 entry or part of it): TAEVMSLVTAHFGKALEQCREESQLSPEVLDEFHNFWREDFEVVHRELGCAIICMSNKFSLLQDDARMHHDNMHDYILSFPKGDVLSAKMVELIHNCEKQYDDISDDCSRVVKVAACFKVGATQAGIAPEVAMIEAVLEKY

The next experiment addresses GmolGOBP2 V114A (Grapholita molesta, UniProt H9XTU6, V134A). Briefly: Fluorescence competitive binding assay, GmolGOBP2 mutant V114A. As for the experimental part: as §1, §2, §3
For the next experiment, the target named is GmolGOBP1 (Grapholita molesta, UniProt H9XTU5). Briefly: Fluorescence competitive binding assay with probe 1-NPN, rGmolGOBP1. Conditions: competitive binding with 1-NPN. As for the experimental part: (§4) Fluorescence binding assays were performed on a Hitachi (Tokyo, Japan) F-4500 fluorescence spectrophotometer with a 1 cm light path fluorimeter quartz cuvette. Both of the slit widths for excitation and emission were 10 nm. 1-N-phenyl-naphthylamine (1-NPN) was dissolved in HPLC purity grade methanol to yield a 1 mM stock solution. […] The probes were excited at 337 nm and emission spectra were recorded between 370 and 550 nm. […] Binding data were collected in three independent measurements.
Chain of GmolGOBP1 (H9XTU5 entry or part of it): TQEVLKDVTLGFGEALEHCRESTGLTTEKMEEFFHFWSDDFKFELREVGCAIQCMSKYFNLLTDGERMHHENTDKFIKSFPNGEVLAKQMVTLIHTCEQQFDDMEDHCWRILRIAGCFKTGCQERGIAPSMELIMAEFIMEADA
(§5) Dissociation constants of the complex GmolGOBPs/1-NPN (K1-NPN) were calculated by a nonlinear regression binding curve, using Prism 5.0 (GraphPad Software Inc.).

In a further experiment the target is GmolGOBP2 (Grapholita molesta, UniProt H9XTU6). In words: Fluorescence competitive binding assay with probe 1-NPN, rGmolGOBP2 wild-type. Conditions: protein and 1-NPN 2 μM, pH 7.4. As for the experimental part:
as §4, §5

A further experiment concerns the target GmolGOBP2 T9A (Grapholita molesta, UniProt H9XTU6, T29A). Briefly: Fluorescence competitive binding assay, GmolGOBP2 mutant T9A. As for the experimental part: as §1, §2, §3

Entries after “also recorded” stand apart in the source; their conditions may differ.

Chain of GmolGOBP2 V111A (H9XTU6 entry or part of it V131A): as the sequence (H9XTU6 entry or part of it) above, with V111A counted along it
Chain of GmolGOBP2 T9A (H9XTU6 entry or part of it T29A): as the sequence (H9XTU6 entry or part of it) above, with T9A counted along it
Chain of GmolGOBP2 (H9XTU6 entry or part of it): as the sequence (H9XTU6 entry or part of it) above
Chain of GmolGOBP2 V114A (H9XTU6 entry or part of it V134A): as the sequence (H9XTU6 entry or part of it) above, with V114A counted along it

In the case of `CCCCCCCCCCCCO` [12:OH, dodecanol], the Ki was 1350 ± 220 nM on GmolGOBP2 V111A; 3.24 µM on rGmolOBP15; 1780 ± 130 nM at GmolGOBP2 V114A; 1220 nM at GmolGOBP2 (calculated from IC50, read-out: GmolGOBP2 Ki); 6.04 ± 0.17 µM at GmolGOBP2 T9A. In addition, on GmolGOBP2 V111A (V111A versus wild-type rGmolGOBP2), the “affinity of V111A mutant versus wild-type (in words)” value is on record as “slightly lower affinities”. Further, the “binding affinity of rGmolGOBP2 at pH 4.0 (in words)” value on rGmolGOBP2 (pH 4.0, 20 mM Tris-HCl) is recorded as “weak ability”. In addition, the “binding affinity of rGmolGOBP2 at pH 7.4 (in words)” value on rGmolGOBP2 (pH 7.4, 20 mM Tris-HCl, six pH values 4.0 to 8.8 compared) is recorded as “maximum value; also recorded: pronounced binding affinity”. For the same compound, on GmolGOBP2 V114A (V114A versus wild-type rGmolGOBP2), the “affinity of V114A mutant versus wild-type (in words)” value is recorded as “slightly lower affinities”. In addition, the “binding to rGmolGOBP1 (in words)” value on GmolGOBP1 was “did not bind”. In addition, the IC50 on GmolGOBP2 (displacing half of initial fluorescence, read-out: GmolGOBP2 IC50) was 1780 ± 230 nM. The “decrease in affinity of T9A mutant” value at GmolGOBP2 T9A (T9A versus wild-type rGmolGOBP2) is given as 3-5 fold.

The values above are taken from paper PMC4859520, “Binding Properties of General Odorant Binding Proteins from the Oriental Fruit Moth, Grapholita molesta (Busck) (Lepidoptera: Tortricidae)” (PLoS ONE, 2016).
